BindingDB's records for doi:10.1124/mol.112.080291 (University of California San Diego, 2014)
Several values for one entry are separate records, joined by “and”; a condition that tells them apart may be missing. Equal values may be shown once.

Experiments:
Assay in all cases: Synthesizing Selective Agonists for the ?7 Nicotinic Receptor with in situ Click-Chemistry on Acetylcholine Binding Protein Templates.
[1] = target: Acetylcholine-binding protein (Lymnaea stagnalis, UniProt P58154); details: pH 7.4; 20 °C
Protocol: (§1) Assay Description 2 Assays used to generate Ki or EC50 values. 1) SPA Assay - Quick screen binding assays were performed using 100 l of 0.2 mg/ml anti-mouse SPA antibody-binding beads (Amersham Biosciences) mixed with 33.6 g of monoclonal anti-FLAG M2 antibody from mouse (Sigma) in 0.1 M NaPO4 buffer, pH 7.0 (SPA mixture). Media (5l) collected 2 days after transfection were added to the mixture and finally 10 l of (+)-[3H]epibatidine (PerkinElmer Life Sciences) was added at a final concentration of 10 nM. Solutions were each counted for 1 min on either a Beckman LS 6500 liquid scintillation counter or Wallac 1450 Microbeta Trilux. Negative and positive controls consisted of media (5 l) from the respective transfections. Nonexpressing mutants were transfected and verified de novo in triplicate. Western immunoblots were also performed upon media (15 l) from transfections to verify the lack of expression. Competition curves and direct binding were measured following the protocol p

[2] = target: Neuronal acetylcholine receptor subunit alpha-7 (Homo sapiens, UniProt P36544); details: pH 7.4; 37 °C
Protocol: as §1

[3] = target: Neuronal acetylcholine receptor subunit alpha-4 (Homo sapiens, UniProt P43681); details: pH 7.4; 37 °C
Protocol: as §1

[4] = target: T1, 5-hydroxytryptamine receptor 3A (Mus musculus, UniProt P23979); details: pH 7.4; 37 °C
T1 sequence (P23979 whole entry): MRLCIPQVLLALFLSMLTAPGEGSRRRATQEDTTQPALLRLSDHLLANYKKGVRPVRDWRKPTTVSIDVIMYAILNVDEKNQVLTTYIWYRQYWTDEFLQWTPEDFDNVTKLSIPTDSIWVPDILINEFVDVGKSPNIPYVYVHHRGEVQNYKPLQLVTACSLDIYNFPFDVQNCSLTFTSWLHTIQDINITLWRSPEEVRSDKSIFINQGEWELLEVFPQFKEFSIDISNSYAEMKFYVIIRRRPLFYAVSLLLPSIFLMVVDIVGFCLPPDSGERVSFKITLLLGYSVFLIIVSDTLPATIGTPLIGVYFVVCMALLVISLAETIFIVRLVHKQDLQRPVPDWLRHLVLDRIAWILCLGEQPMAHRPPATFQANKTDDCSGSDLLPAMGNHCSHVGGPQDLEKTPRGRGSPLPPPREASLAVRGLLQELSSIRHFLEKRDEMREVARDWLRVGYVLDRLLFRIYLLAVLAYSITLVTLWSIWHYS
Protocol: as §1

[5] = target: T2, Soluble acetylcholine receptor (Aplysia californica, UniProt Q8WSF8); details: pH 7.4; 20 °C
T2 sequence (Q8WSF8 whole entry): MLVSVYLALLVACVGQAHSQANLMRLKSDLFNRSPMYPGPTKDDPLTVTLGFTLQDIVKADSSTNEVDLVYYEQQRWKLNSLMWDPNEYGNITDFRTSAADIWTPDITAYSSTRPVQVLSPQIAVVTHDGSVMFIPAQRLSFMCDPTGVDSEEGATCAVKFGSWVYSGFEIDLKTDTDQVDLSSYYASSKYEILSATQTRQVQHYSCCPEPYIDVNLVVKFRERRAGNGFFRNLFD
Protocol: as §1

Acetylcholine-binding protein, sequence (P58154 whole entry): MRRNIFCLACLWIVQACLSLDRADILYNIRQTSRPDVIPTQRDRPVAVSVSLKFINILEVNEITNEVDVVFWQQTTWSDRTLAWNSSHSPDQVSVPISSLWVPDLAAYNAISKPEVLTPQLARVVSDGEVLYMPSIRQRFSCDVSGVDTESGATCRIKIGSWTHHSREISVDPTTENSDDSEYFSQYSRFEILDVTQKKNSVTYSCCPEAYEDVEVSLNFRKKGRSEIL
Neuronal acetylcholine receptor subunit alpha-4, sequence (P43681 whole entry): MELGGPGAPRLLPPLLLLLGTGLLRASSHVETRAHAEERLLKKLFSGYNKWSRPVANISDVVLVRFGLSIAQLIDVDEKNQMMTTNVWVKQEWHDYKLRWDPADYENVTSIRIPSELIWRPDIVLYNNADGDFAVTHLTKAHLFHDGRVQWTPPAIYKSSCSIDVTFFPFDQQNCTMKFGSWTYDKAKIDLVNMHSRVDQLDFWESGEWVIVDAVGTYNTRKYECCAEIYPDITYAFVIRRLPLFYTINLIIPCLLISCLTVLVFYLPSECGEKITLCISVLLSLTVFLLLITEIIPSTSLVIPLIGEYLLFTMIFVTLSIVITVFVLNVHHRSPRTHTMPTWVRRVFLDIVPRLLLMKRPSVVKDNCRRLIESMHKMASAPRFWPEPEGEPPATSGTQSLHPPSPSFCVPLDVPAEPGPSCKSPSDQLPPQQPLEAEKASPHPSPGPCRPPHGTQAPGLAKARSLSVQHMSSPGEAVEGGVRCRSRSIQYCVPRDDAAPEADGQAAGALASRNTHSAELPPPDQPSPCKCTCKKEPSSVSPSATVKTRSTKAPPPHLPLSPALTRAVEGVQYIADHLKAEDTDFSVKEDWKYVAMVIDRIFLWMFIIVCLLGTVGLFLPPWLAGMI
Neuronal acetylcholine receptor subunit alpha-7, sequence (P36544 whole entry): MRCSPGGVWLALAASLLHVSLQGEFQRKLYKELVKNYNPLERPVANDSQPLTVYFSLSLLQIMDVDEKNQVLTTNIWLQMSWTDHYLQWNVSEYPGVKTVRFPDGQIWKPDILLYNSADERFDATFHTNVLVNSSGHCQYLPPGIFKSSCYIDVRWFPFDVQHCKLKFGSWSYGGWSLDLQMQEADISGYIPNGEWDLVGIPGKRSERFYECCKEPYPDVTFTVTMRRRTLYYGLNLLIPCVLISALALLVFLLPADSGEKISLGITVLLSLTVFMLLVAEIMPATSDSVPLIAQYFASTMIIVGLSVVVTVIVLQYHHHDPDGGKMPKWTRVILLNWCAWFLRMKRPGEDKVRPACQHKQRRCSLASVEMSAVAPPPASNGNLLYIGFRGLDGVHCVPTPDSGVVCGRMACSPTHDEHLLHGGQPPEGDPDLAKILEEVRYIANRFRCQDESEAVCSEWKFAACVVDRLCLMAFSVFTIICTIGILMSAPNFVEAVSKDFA

| Structure (SMILES) | Ki [1] [nM] | EC50 [2] [nM] | Ki [3] [nM] | Ki [4] [nM] | Ki [5] |
| --- | --- | --- | --- | --- | --- |
| C[N+]1(C)[C@@H]2CC[C@H]1C[C@H](n1cc(C(O)(c3ccccc3)C(F)(F)F)nn1)C2 (stereo partly specified) [19q] | 120 | 2000 | 22000 | > 30000 |  |
| CN1[C@@H]2CC[C@H]1C[C@H](n1cc(CNS(=O)(=O)c3ccc([N+](=O)[O-])cc3)nn1)C2 [16t] | > 5000 | 5000 | > 30000 | > 30000 | > 5000 nM |
| CN1[C@@H]2CC[C@H]1C[C@H](n1cc(CNC(=O)N3c4ccccc4CCc4ccccc43)nn1)C2 [23t] | > 5000 | > 30000 | > 30000 | > 30000 | 1300 nM and 1020 nM and > 5000 nM |
| C[N+]1(C)[C@@H]2CC[C@H]1C[C@H](n1cc(C3(O)CCCCC3)nn1)C2 [11q] | > 5000 | 9000 | > 30000 | > 30000 |  |
| CN1[C@@H]2CC[C@H]1C[C@H](n1cc(C3(O)c4ccccc4-c4ccccc43)nn1)C2 [20t] | 500 | 12000 | > 30000 | > 30000 | 2000 nM and 3100 nM and > 5000 nM |
| CC(=O)c1c(OCc2cn([C@@H]3C[C@H]4CC[C@@H](C3)N4C)nn2)ccc2ccccc12 [22t] | 141 | 9000 | 12000 | 12000 | 800 nM and 700 nM and > 5000 nM |
| C[N+]1(C)[C@@H]2CC[C@H]1C[C@H](n1cc(CSc3nc4ccccc4s3)nn1)C2 [15q] | 4 | 200 | 3000 | > 30000 | 13 nM and 8 nM |
| Cn1nncc1COc1cc(=O)n(C)c2ccccc12 [alpha7 agonists 1'] | 60 | 6000 | 30000 | > 30000 | 1400 nM and 170 nM |
| C[N+]1(C)[C@@H]2CC[C@H]1C[C@H](n1cc(COc3ccccc3-c3ccno3)nn1)C2 [14q] | 50 | 2000 | > 30000 | > 30000 | 140 nM and 170 nM and 96 nM |
| Cc1cc([N+](=O)[O-])ccc1OCc1cn([C@@H]2C[C@H]3CC[C@@H](C2)[N+]3(C)C)nn1 [alpha7 agonists 9] |  | 1900 | 14000 | > 30000 |  |
| CN1[C@@H]2CC[C@H]1C[C@H](n1cc(COc3ccccc3-c3ccno3)nn1)C2 [14t] | 25 | > 30000 | > 30000 | > 30000 |  |
| Cn1c(=O)cc(OCc2cn(CCC[N+]3(C)CCCC3)nn2)c2ccccc21 [alpha7 agonists 5] |  | 800 | 18000 | > 30000 |  |
| Cn1c(=O)cc(OCc2cnnn2CCC[N+]2(C)CCCC2)c2ccccc21 [5'] | 600 | 2000 | 40000 | > 30000 | 1400 nM and 800 nM |
| CN1[C@@H]2CC[C@H]1C[C@H](n1cc(C3(O)CCCCC3)nn1)C2 [11t] | > 5000 | > 30000 | > 30000 | > 30000 | > 5000 nM |
| CN1[C@@H]2CC[C@H]1C[C@H](n1cc(C(O)(c3ccccc3)C(F)(F)F)nn1)C2 (stereo partly specified) [19t] | > 5000 | > 30000 | > 30000 | > 30000 | > 5000 nM |
| CN1[C@@H]2CC[C@H]1C[C@H](n1cc(CSc3nc4ccccc4s3)nn1)C2 [15t] | 40 | 12000 | 32000 | 32000 | 240 nM and 140 nM and 110 nM |
| CN1[C@@H]2CC[C@H]1C[C@H](n1cc(COc3ccccc3C3CCCC3)nn1)C2 [18t] | 30 | > 30000 | 12000 | 12000 |  |
| C[N+](C)(C)CCn1cc(COc2cc([O])nc3ccccc23)nn1 [alpha7 agonists 6] |  | 1700 | 14000 | > 30000 |  |
| CN1[C@@H]2CC[C@H]1C[C@H](n1cc(-c3cc(C(F)(F)F)cc(C(F)(F)F)c3)nn1)C2 [17t] | 600 | > 30000 | > 30000 | > 30000 | 1100 nM and > 5000 nM |
| COc1ccc(C=O)c(OCc2cn([C@@H]3C[C@H]4CC[C@@H](C3)[N+]4(C)C)nn2)c1 [13q] | 20 | 800 | 7000 | > 30000 | 110 nM and 120 nM and 80 nM |

| Structure (SMILES) | Ki [1] [nM] | EC50 [2] [nM] | Ki [3] [nM] | Ki [4] [nM] | Ki [5] |
| --- | --- | --- | --- | --- | --- |
| CCC[N+](C)(C)CCn1nncc1COc1cc(=O)n(C)c2ccccc12 [2'] | 40 | 4200 | > 30000 | > 30000 | 800 nM and 210 nM |
| Cn1c(=O)cc(OCc2cn([C@@H]3C[C@H]4CC[C@@H](C3)[N+]4(C)C)nn2)c2ccccc21 [alpha7 agonists 4] |  | 300 | 4000 | 34000 |  |
| C[N+]1(C)[C@@H]2CC[C@H]1C[C@H](n1cc(CNC(=O)c3ccco3)nn1)C2 [12q] | 400 | 3000 | > 30000 | > 30000 | 600 nM and 1000 nM and 700 nM |
| C[N+]1(C)[C@@H]2CC[C@H]1C[C@H](n1cc(CNS(=O)(=O)c3ccc([N+](=O)[O-])cc3)nn1)C2 [16q] | > 5000 | 1800 | > 30000 | > 30000 | 620 nM and 800 nM and 600 nM |
| Cc1cc(C)nc(SCCCc2cn([C@@H]3C[C@H]4CC[C@@H](C3)N4C)nn2)n1 [21t] | 300 | > 30000 | > 30000 | > 30000 |  |
| C[N+]1(C)[C@@H]2CC[C@H]1C[C@H](n1cc(C3(O)c4ccccc4-c4ccccc43)nn1)C2 [20q] | 50 | 4000 | 15000 | > 30000 | 400 nM and 600 nM and 120 nM |
| C[N+]1(C)[C@@H]2CC[C@H]1C[C@H](n1cc(CNC(=O)N3c4ccccc4CCc4ccccc43)nn1)C2 [23q] | 500 | 8000 | 30000 | > 30000 | 420 nM and 1000 nM and 2000 nM |
| Cc1cc(C)nc(SCCCc2cn([C@@H]3C[C@H]4CC[C@@H](C3)[N+]4(C)C)nn2)n1 [21q] | 40 | 3000 | 27100 | > 30000 |  |
| C[N+]1(C)[C@@H]2CC[C@H]1C[C@H](n1cc(-c3cc(C(F)(F)F)cc(C(F)(F)F)c3)nn1)C2 [17q] | 130 | 900 | 5000 | 8000 | 110 nM and 300 nM and 400 nM |
| CN1[C@@H]2CC[C@H]1C[C@H](n1cc(COc3cc(=O)n(C)c4ccccc34)nn1)C2 [alpha7 agonists 4t] | 1.3 | 11000 | 14000 | 15000 |  |
| O=c1cc(OCc2cnnn2CC[N+]23CCC(CC2)CC3)c2ccccc2[nH]1 [3'] | 24 | 2900 | 30000 | > 30000 | 250 nM and 290 nM |
| CC(=O)NCc1cn([C@@H]2C[C@H]3CC[C@@H](C2)N3C)nn1 [10t] | 900 | > 30000 | 18000 | > 30000 | > 5000 nM |
| CN1CC=C(OCc2cnnn2C2CC3CCC(C2)[N+]3(C)C)c2ccccc21 (stereo unspecified) [4'] | 2 | 600 | 23000 | 900 | 300 nM and 100 nM |
| CN1[C@@H]2CC[C@H]1C[C@H](n1cc(CNC(=O)c3ccco3)nn1)C2 [12t] | 210 | > 30000 | 20000 | > 30000 | > 5000 nM and 1400 nM |
| COc1cc(C=O)ccc1OCc1cn([C@@H]2C[C@H]3CC[C@@H](C2)[N+]3(C)C)nn1 [alpha7 agonists 8] |  | 1000 | 6000 | > 30000 |  |
| CC(=O)c1c(OCc2cn([C@@H]3C[C@H]4CC[C@@H](C3)[N+]4(C)C)nn2)ccc2ccccc12 [22q] | 160 | 400 | > 30000 | > 30000 | 200 nM and 300 nM and 900 nM |
| Cn1c(=O)cc(OCc2cn(CC[N+]34CCC(CC3)CC4)nn2)c2ccccc21 [alpha7 agonists 3] |  | 1800 | 8000 | > 30000 |  |
| C[N+]1(C)[C@@H]2CC[C@H]1C[C@H](n1cc(COc3cccc(C#N)c3)nn1)C2 [alpha7 agonists 7] |  | 900 | > 30000 | > 30000 |  |
| Cn1c(=O)cc(OCc2cn(CC[N+]3(C)CCCCC3)nn2)c2ccccc21 [alpha7 agonists 2] |  | 1200 | 12000 | > 30000 |  |
| COc1ccc(C=O)c(OCc2cn([C@@H]3C[C@H]4CC[C@@H](C3)N4C)nn2)c1 [13t] | 26 | > 30000 | 5000 | 5000 |  |
